Experimental findings from ChEMBL document CHEMBL1146990, “Antibacterial activity of (-)-deoxypseudophrynaminol versus its racemate and derivatives” (2006) are described below.

Assay [1] deals with Staphylococcus aureus. Kind of assay: Antibacterial activity against Staphylococcus aureus at 40 ug/ml relative to control. It counts as functional.
The test system of assay [2] is Staphylococcus aureus. The experiment in a line: Antibacterial activity against Staphylococcus aureus at 10 ug/ml relative to control. It counts as functional.

Calls of active or inactive are those of the source. The calls are words filed in the database; no cut-off is given here.

In assay [1], `CC(C)=CC[C@@]12CCN(C)[C@@H]1Nc1ccccc12` (racemic) [listing 1 of 2 here] had an Activity of 85%. In the case of `COC(=O)N1CC[C@@]2(CC=C(C)C)c3ccccc3N(CC=C(C)C)[C@@H]12` (racemic), the outcome in assay [1] and in assay [2] was inactive. As to `CC(C)=CC[C@@]12CCN(C)[C@@H]1Nc1ccccc12`, the figures for the Activity in assay [1] and in assay [2] were 99% and 50%, respectively. Consider `CC(C)=CC[C@@]12CCN(C)[C@@H]1Nc1ccccc12` (racemic) [listing 2 of 2 here], for which the result in assay [2] was inactive. The molecule `CC(C)=CCN1c2ccccc2[C@]2(CC=C(C)C)CCN(C)[C@H]12` (racemic) [(-)-DEBROMOFLUSTRAMINE B] had an Activity in assay [1] of 30%.
